For series [1], the target named is T1, hGAT1 (Homo sapiens, UniProt P30531).
T1 construct: expressed in transfected cells; host or cells: HEK293
Nature of the series: [3H]GABA uptake in hGAT1 cells under different GABA concentrations. Format: cell-based. Conditions: [3H]GABA 0.01-500 μM. The procedure:
hGAT1 stably expressing HEK293 cells were plated onto 96‐well microtiter plates at a density of 4.0 × 10^4 cells/well in DMEM and incubated overnight at 37°C in a 5% CO2 atmosphere. After washing the cells with assay buffer, E2730 (0.0128–1000 μM), tiagabine (Tokyo Chemical Industry; 0.000256–100 μM), or vehicle was added to the plate in the presence of 1% DMSO. After adding [^3H]GABA (0.01–500 μM), the plate was incubated for 5 minutes at 37°C in a 5% CO2 atmosphere. The radioactivity of the treated cells was assessed following the same method described above.

Series [2] deals with Scn1a+/- mice. Kind of series: Hyperthermia-induced seizures in Scn1a+/- mice (Dravet syndrome model). Format: in vivo, mouse. As for the experimental part: Scn1a heterozygous mutant (Scn1a ^+/−) mice, a model of Dravet Syndrome (DS), and the littermate wild‐type (Scn1a ^+/+) mice (male, 24–28 days postnatal; Jackson Laboratory, US) received E2730 (10, 20 mg/kg) or vehicle orally 1 hour before hyperthermia stimulation. A rectal temperature probe (Physitemp, NJ) was fitted at 50 minutes post‐treatment, and mice were acclimated to the probe and test chamber for 10 minutes. At 1‐hour post‐treatment, core body temperature was elevated by a heat lamp connected to a feedback temperature controller (Physitemp) by 0.5°C every 2 minutes until a maximum of 42.5°C was reached. The threshold body temperatures for generalized tonic–clonic seizures were recorded for each mouse. The cut‐off time was set as 180 seconds.

Series [3] is described as follows: Accelerating rotarod test in mice (motor coordination). The following applies: male, ddY, mouse, in vivo, oral, 1 hour before test, read-out: TD50 (95% CI) in mouse rotarod test. The procedure: Motor incoordination is one of the most common AEs associated with the use of ASMs.[9] Therefore, motor coordination was evaluated in mice receiving E2730 to assess if it is a new ASM candidate with a wide margin between therapeutic effects and AEs. E2730 (50–400 mg/kg) or vehicle was orally administered in ddY mice (male, 5 weeks old) 1 hour before the rotarod test, and the latency for mice to fall off the rod was measured. The rod rotation of the rotarod apparatus (Muromachi Kikai) was continuously accelerated from 0 to 40 rpm in a cut‐off time of 180 seconds.
Background: The rotarod test checks motor coordination on a turning rod.

The target of series [4] is T2, hGAT2 (Homo sapiens, UniProt Q9NSD5).
T2 construct: expressed in transfected cells; host or cells: HEK293
T2 sequence (Q9NSD5 1-602): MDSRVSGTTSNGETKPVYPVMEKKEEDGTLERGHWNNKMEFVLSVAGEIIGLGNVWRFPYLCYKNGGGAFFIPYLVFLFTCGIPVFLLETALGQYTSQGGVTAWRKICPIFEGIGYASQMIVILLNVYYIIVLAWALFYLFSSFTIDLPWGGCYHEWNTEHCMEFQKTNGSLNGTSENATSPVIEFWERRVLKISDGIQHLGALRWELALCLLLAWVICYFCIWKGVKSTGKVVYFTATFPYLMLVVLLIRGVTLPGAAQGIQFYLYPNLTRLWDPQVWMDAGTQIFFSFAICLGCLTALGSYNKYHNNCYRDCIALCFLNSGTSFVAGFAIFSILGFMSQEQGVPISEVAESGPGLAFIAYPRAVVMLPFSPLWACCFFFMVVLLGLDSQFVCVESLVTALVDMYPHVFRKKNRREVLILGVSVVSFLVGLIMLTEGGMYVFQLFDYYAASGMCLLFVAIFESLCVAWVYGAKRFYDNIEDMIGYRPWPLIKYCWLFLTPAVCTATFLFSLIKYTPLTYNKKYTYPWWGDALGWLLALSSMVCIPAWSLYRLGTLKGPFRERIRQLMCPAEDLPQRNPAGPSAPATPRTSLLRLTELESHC
Nature of the series: [3H]GABA uptake in hGAT2 stably expressing HEK293 cells. Format: cell-based. The following applies: 50 μM [3H]GABA. As for the experimental part:
HEK293 cells stably expressing human GAT1 (hGAT1), GAT2 (hGAT2), GAT3 (hGAT3), or betaine/GABA transporter 1 (hBGT‐1) were plated onto 96‐well microtiter plates at a density of 4.0 × 10^4 cells/well in Dulbecco's Modified Eagle's Medium (DMEM, containing 10% fetal bovine serum, 100 units/mL penicillin, 100 μg/mL streptomycin, 1% non‐essential amino acid solution, and 25 mM HEPES) and incubated overnight at 37°C in a 5% CO2 atmosphere. After washing the cells with Hanks’ balanced salt solution (HBSS, containing 140 mg/L CaCl2, 100 mg/L MgCl2, 20 mM HEPES, and 10 mM NaOH), E2730 (0.0128–1000 μM) was added to the plate. Following the addition of 50 μM [^3H]GABA, cells were incubated for 5 minutes at 37°C in a 5% CO2 atmosphere and then washed with cold HBSS. Washed cells were incubated in a scintillator for 1 hour at room temperature, followed by radioactivity measurements using a liquid scintillation counter.

For series [5], the system named is brain synaptosomal membranes of GAT1-deficient mice. Kind of series: [3H]E2730 binding in GAT1-deficient mouse brain. Conditions: 200 nM [3H]E2730. As for the experimental part: Synaptosomal membrane extract was prepared from homozygous γ‐aminobutyric acid (GABA) transporter 1 (GAT1) KO (Homo), heterozygous GAT1 KO (Hetero), and the littermate wild‐type (WT) mice (male, 10 weeks old) using the same approach as described above. Synaptosomal membrane extract (0.4 mg protein/tube) was incubated with 200 nM [^3H]E2730 for 120 minutes at 4°C. Non‐specific binding was defined as the residual binding observed in the presence of 1 mM unlabeled E2730. The radioactivity of the synaptosome‐bound radioligand was measured in the same way as described above.

Each structure is given as a SMILES string.

For orientation: TD50 means the dose at which the toxic effect under study appears in half of the subjects. What is called IC50 is the concentration needed to halve the response being measured. A higher IC50 goes with a need for much substance.

T1 sequence (P30531 whole entry): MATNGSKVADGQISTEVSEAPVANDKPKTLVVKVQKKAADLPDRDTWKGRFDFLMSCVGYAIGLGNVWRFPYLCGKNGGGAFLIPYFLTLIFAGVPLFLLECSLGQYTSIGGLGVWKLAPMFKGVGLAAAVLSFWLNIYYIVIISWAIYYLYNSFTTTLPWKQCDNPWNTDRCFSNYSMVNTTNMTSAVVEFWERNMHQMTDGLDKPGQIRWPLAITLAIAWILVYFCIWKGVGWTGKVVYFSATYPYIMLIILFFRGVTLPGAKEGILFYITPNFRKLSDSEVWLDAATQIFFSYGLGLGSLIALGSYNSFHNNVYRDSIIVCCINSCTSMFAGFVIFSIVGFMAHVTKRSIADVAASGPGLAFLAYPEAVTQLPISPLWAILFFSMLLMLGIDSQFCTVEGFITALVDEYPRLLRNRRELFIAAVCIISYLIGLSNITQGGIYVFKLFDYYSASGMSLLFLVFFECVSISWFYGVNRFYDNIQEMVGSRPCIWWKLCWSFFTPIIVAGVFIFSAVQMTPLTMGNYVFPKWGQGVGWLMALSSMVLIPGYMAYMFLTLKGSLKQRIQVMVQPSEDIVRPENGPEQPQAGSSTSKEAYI

For `NS(=O)(=O)N[C@H]1c2c(F)cc(F)cc2CC1(F)F` [E2730], the “dependence of GAT1 inhibition on ambient GABA concentration” value in series [1] was “positively correlated with the ambient GABA concentration”. The “seizure occurrence in littermate WT (Scn1a+/+) mice” value in series [2] (20 mg/kg, maximum temperature of 42.5°C) is listed as “No seizures occurred”. The “median threshold body temperature for generalized tonic-clonic seizures” value in series [2] (Scn1a+/- mice, 10 mg/kg oral) was found to be 41.2 °C; in series [2] (Scn1a+/- mice, 20 mg/kg oral), 42.4 °C. In series [2] (Scn1a+/- mice, oral, footnote a: minimum effective dose), the “Minimum effective dose, hyperthermia-induced seizures” value stood at 10 mg/kg. The TD50 at 1 h in series [3] was determined as 350 mg/kg. This compound also came in with an IC50 in series [4] of over 1000 µM. Moreover, the “proportion of bound [3H]E2730 relative to WT mice” value turned out to be 54.0% in series [5] (heterozygous GAT1 KO (Hetero) mice) and 8.0% in series [5] (homozygous GAT1 KO (Homo) mice).

These data come from publication PMC10472371, “Discovery of E2730, a novel selective uncompetitive GAT1 inhibitor, as a candidate for anti‐seizure medication” (Epilepsia Open, 2023).
